Results reported in US8481538B2, “Heterocyclic inhibitors of c-Met and uses thereof” (Vertex Pharmaceuticals Incorporated, priority 2006, dated 2013).

Molecular target: c-Met (Homo sapiens, UniProt P08581)
Assay: Ki determination for the inhibition of c-Met (standard radiometric kinase assay)
Assay type: biochemical
Details: radiometric 33P-ATP assay, 1.0 nM c-Met, 35 μM ATP, 0.5 mg/mL polyE4Y, competitive tight-binding fit
Protocol: Ki Determination for the Inhibition of c-Met
Compounds of the invention were screened for their ability to inhibit c-Met kinase activity using a standard radiometric assay. Briefly, in this kinase assay the transfer of the terminal ^33P-phosphate in ^33P-ATP to substrate polyE4Y is interrogated. The assay was carried out in 96-well plates to a final volume of 100 μL per well containing 1.0 nM c-Met, 100 mM HEPES (pH 7.5), 10 mM MgCl2, 25 mM NaCl, 0.01% BSA, 1 mM DTT, 0.5 mg/mL polyE4Y, and 35 μM ATP. Accordingly, compounds of the invention were dissolved in DMSO to make 10 mM initial stock solutions. Serial dilutions in DMSO were then made to obtain the final solutions for the assay. A 1.5 μL aliquot of DMSO or inhibitor in DMSO was added to each well. The reaction was initiated by the addition of ^33P-ATP and polyE4Y (obtained from Sigma). After 20 min, the reaction was quenched with 50 μL of 30% trichloroacetic acid (TCA) containing 4 mM ATP. The reaction mixture was transferred to the 0.66 mm GF filter plates (Corning) and washed three times with 5% TCA. Following the addition of 50 μL of Ultimate Gold™ high efficiency scintillant (Packard Bioscience), the samples were counted in a Packard TopCount NXT Microplate Scintillation and Luminescence Counter (Packard BioScience). The Ki values were calculated using Microsoft Excel Solver macros to fit the data to the kinetic model for competitive tight-binding inhibition.

c-Met, sequence (P08581 25-1390): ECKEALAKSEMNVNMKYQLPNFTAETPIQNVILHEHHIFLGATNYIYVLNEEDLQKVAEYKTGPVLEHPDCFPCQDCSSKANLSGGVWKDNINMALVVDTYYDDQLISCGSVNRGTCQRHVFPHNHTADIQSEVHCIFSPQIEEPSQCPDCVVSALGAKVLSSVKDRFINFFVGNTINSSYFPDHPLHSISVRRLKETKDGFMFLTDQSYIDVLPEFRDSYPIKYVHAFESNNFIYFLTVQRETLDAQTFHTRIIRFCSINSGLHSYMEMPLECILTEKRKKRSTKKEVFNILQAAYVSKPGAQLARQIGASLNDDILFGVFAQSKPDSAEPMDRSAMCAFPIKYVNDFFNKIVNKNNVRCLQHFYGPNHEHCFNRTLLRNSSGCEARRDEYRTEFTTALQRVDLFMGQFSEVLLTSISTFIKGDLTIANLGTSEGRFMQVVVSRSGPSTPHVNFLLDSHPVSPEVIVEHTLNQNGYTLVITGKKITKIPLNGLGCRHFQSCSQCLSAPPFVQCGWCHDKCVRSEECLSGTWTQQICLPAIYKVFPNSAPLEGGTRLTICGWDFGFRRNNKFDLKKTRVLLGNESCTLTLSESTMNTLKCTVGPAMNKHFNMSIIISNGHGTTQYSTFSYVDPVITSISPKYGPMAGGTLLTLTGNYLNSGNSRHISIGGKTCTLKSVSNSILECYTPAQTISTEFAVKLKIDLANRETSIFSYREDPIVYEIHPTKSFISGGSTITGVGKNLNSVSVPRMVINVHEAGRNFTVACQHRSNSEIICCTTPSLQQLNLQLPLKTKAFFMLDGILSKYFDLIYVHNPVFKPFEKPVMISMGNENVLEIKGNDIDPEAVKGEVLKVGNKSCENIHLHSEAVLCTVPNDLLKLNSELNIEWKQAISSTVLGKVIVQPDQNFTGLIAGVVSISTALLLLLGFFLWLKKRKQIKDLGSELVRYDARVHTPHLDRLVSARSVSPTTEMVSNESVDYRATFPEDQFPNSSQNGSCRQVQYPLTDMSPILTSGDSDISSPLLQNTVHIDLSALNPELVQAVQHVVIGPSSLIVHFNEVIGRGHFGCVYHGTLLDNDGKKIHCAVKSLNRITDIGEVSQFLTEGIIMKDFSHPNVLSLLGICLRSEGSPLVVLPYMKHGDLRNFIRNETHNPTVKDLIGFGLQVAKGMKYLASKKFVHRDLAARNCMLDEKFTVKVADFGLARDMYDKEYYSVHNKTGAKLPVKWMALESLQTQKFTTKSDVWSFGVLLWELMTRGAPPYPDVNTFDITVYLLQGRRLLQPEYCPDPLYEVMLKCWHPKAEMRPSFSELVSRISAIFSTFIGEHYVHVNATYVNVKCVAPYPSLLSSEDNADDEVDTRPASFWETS

Ki [nM] | Compound
≤ 250 | C[C@@H](NC(=O)c1nc(-c2cnn(C3CCNCC3)c2)cnc1N)c1nnc2ccc(-c3ccccc3)nn12 [Compound 83]
> 2500 | Clc1cccc(Nc2ccc3nnc(CNCc4ccccn4)n3n2)c1 [Compound 3]
250 to 2500 | C[C@@H](NC(=O)c1nc(C#Cc2ccccc2)cnc1N)c1nnc2ccc(Nc3cccc(Cl)c3)nn12 [Compound 48]
250 to 2500 | Cc1nn2c([C@@H](C)NC(=O)c3nc(-c4ccccc4)cnc3N)nnc2s1 [Compound 75]
250 to 2500 | CCC(C)Nc1ccc2nnc([C@@H](C)NC(=O)c3nc(-c4ccccc4)cnc3N)n2n1 (stereo partly drawn) [Compound 25]
≤ 250 | C[C@@H](NC(=O)c1nc(-c2cccc(C3CCNCC3)c2)cnc1N)c1nnc2ccc(Nc3cccc(Cl)c3)nn12 [Compound 77]
250 to 2500 | C[C@@H](NC(=O)c1nc(Br)cnc1N)c1nnc2ccc(Nc3cccc(Cl)c3)nn12 [Compound 18]
250 to 2500 | C[C@@H](NC(=O)c1nc(C#CC2(O)CCCC2)cnc1N)c1nnc2ccc(Nc3cccc(Cl)c3)nn12 [Compound 45]
250 to 2500 | CCc1cnc(N)c(C(=O)N[C@H](C)c2nnc3ccc(Nc4cccc(Cl)c4)nn23)n1 [Compound 52]
250 to 2500 | CCOc1ccc2nnc([C@@H](C)NC(=O)c3nc(-c4ccc(CN5CCCC5)cc4)cnc3N)n2n1 [Compound 71]
≤ 250 | C[C@@H](NC(=O)c1nc(-c2ccncc2)cnc1N)c1nnc2ccc(Nc3cccc(Cl)c3)nn12 [Compound 42]
250 to 2500 | C[C@@H](NC(=O)c1nc(C#CC(C)(C)C)cnc1N)c1nnc2ccc(Nc3cccc(Cl)c3)nn12 [Compound 51]
≤ 250 | C[C@@H](NC(=O)c1nc(-c2cccc(N3CCNCC3)c2)cnc1N)c1nnc2ccc(Nc3cccc(Cl)c3)nn12 [Compound 69]
250 to 2500 | C[C@@H](NC(=O)c1cnc2ccccc2n1)c1nnc2ccc(Nc3cccc(Cl)c3)nn12 [Compound 16]
≤ 250 | C[C@@H](NC(=O)c1nc(-c2ccccc2)cnc1N)c1nnc2ccc(Nc3cccc(Cl)c3)nn12 [Compound 21]
> 2500 | CC(C)[C@@H](NC(=O)c1nc(-c2ccccc2)cnc1N)c1nnc2ccc(Nc3cccc(Cl)c3)nn12 [Compound 35]
250 to 2500 | Nc1cccnc1NC(=O)Cc1nnc2ccc(Nc3cccc(Cl)c3)nn12 [Compound 8]
≤ 250 | C[C@@H](NC(=O)c1cc(-c2ccccc2)cnc1N)c1nnc2ccc(Nc3cccc(Cl)c3)nn12 [Compound 23]
> 2500 | O=C(Cc1nnc2ccc(Nc3cccc(Cl)c3)nn12)NCc1cccnc1 [Compound 6]
≤ 250 | C[C@@H](NC(=O)c1nc(C#CCO)cnc1N)c1nnc2ccc(Nc3cccc(Cl)c3)nn12 [Compound 43]
250 to 2500 | C[C@@H](NC(=O)c1cc(-c2cnn(C)c2)cnc1N)c1nnc2sc(Nc3cccc(Cl)c3)nn12 [Compound 63]
250 to 2500 | C[C@@H](NC(=O)Nc1cccnc1)c1nnc2ccc(Nc3cccc(Cl)c3)nn12 [Compound 15, 1-((R)-1-(6-(3-chlorophenylamino)-[1,2,4]triazolo[4,3-b]pyridazin-3-yl)ethyl)-3-(pyridin-3-yl)urea]

Ki [nM] | Compound
250 to 2500 | C[C@@H](NC(=O)c1nc(C#CCC2CCCC2)cnc1N)c1nnc2ccc(Nc3cccc(Cl)c3)nn12 [Compound 49]
250 to 2500 | CCCC#Cc1cnc(N)c(C(=O)N[C@H](C)c2nnc3ccc(Nc4cccc(Cl)c4)nn23)n1 [Compound 50]
≤ 250 | CC(=O)Nc1ccc(-c2cnc(N)c(C(=O)N[C@H](C)c3nnc4ccc(Nc5cccc(Cl)c5)nn34)c2)cc1 [Compound 24]
250 to 2500 | C[C@@H](NC(=O)c1nc(C#CC2CC2)cnc1N)c1nnc2ccc(Nc3cccc(Cl)c3)nn12 [Compound 61]
250 to 2500 | CC[C@@H](NC(=O)c1nc(-c2ccccc2)cnc1N)c1nnc2ccc(Nc3cccc(Cl)c3)nn12 [Compound 34]
250 to 2500 | CCC(C)Nc1ccc2nnc([C@@H](C)NC(=O)c3nc(-c4ccc(NC(C)=O)cc4)cnc3N)n2n1 (stereo partly drawn) [Compound 26]
≤ 250 | CC(=O)Nc1cccc(-c2cnc(N)c(C(=O)N[C@H](C)c3nnc4ccc(Nc5cccc(Cl)c5)nn34)n2)c1 [Compound 58]
250 to 2500 | C[C@@H](NC(=O)c1cc(Br)cnc1N)c1nnc2ccc(Nc3cccc(Cl)c3)nn12 [Compound 17]
250 to 2500 | C[C@@H](NC(=O)c1nc(-c2ccccc2)cnc1N)c1nnc2sc(N)nn12 [Compound 74]
≤ 250 | C[C@@H](NC(=O)c1nc(-c2cccs2)cnc1N)c1nnc2ccc(Nc3cccc(Cl)c3)nn12 [Compound 29]
≤ 250 | C[C@@H](NC(=O)c1nc(C#N)cnc1N)c1nnc2ccc(Nc3cccc(Cl)c3)nn12 [Compound 38]
250 to 2500 | C[C@@H](NC(=O)c1nc(C#Cc2ccncc2)cnc1N)c1nnc2ccc(Nc3cccc(Cl)c3)nn12 [Compound 57]
250 to 2500 | C[C@@H](NC(=O)c1nc(-c2ccccc2)cnc1N)c1nnc2ccc(Cl)nn12 [Compound 64]
250 to 2500 | C[C@@H](NC(=O)c1nc(C#Cc2cccnc2)cnc1N)c1nnc2ccc(Nc3cccc(Cl)c3)nn12 [Compound 56]
≤ 250 | C[C@@H](NC(=O)c1nc(-c2cccnc2)cnc1N)c1nnc2ccc(Nc3cccc(Cl)c3)nn12 [Compound 41]
≤ 250 | Clc1cccc(Nc2ccc3nnc(CNc4n[nH]c5ncccc45)n3n2)c1 [Compound 20]
> 2500 | Clc1cccc(Nc2ccc3nnc(COCc4cnccn4)n3n2)c1 [Compound 19]
≤ 250 | C[C@@H](NC(=O)c1nc(-c2cnn(C)c2)cnc1N)c1nnc2ccc(Nc3cccc(Cl)c3)nn12 [Compound 27]
≤ 250 | C[C@@H](NC(=O)c1nc(-c2ccsc2)cnc1N)c1nnc2ccc(Nc3cccc(Cl)c3)nn12 [Compound 31]
> 2500 | Clc1cccc(Nc2ccc3nnc(CNCc4cccnc4)n3n2)c1 [Compound 4]
> 2500 | CN(C(=O)Cc1nnc2ccc(Nc3cccc(Cl)c3)nn12)c1ccccn1 [Compound 7]
≤ 250 | C[C@@H](NC(=O)c1nc(C(N)=O)cnc1N)c1nnc2ccc(Nc3cccc(Cl)c3)nn12 [Compound 39]

Ki [nM] | Compound
≤ 250 | CN(Cc1cccnc1)Cc1nnc2ccc(Nc3cccc(Cl)c3)nn12 [Compound 1]
≤ 250 | C[C@@H](NC(=O)c1nc(-c2ccc(CN3CC[C@H](O)C3)cc2)cnc1N)c1nnc2ccc(Nc3cccc(Cl)c3)nn12 [Compound 67]
≤ 250 | Nc1ncc(-c2ccccc2)nc1C(=O)N[C@H](CO)c1nnc2ccc(Nc3cccc(Cl)c3)nn12 [Compound 30]
≤ 250 | CNCc1ccc(-c2cnc(N)c(C(=O)N[C@H](C)c3nnc4ccc(Nc5cccc(Cl)c5)nn34)n2)cc1 [Compound 78]
≤ 250 | CCC(O)C#Cc1cnc(N)c(C(=O)N[C@H](C)c2nnc3ccc(Nc4cccc(Cl)c4)nn23)n1 (stereo partly drawn) [Compound 46]
250 to 2500 | Cc1ccc2nnc([C@@H](C)NC(=O)c3nc(-c4ccc(CN5CCCC5)cc4)cnc3N)n2n1 [Compound 79]
250 to 2500 | C[C@@H](NC(=O)c1nc(-c2cnn(C)c2)cnc1N)c1nnc2ccc(-c3ccccc3)nn12 [Compound 82]
250 to 2500 | C[C@@H](NC(=O)c1nc(C#Cc2ccccn2)cnc1N)c1nnc2ccc(Nc3cccc(Cl)c3)nn12 [Compound 53]
≤ 250 | C=Cc1cnc(N)c(C(=O)N[C@H](C)c2nnc3ccc(Nc4cccc(Cl)c4)nn23)n1 [Compound 37]
≤ 250 | CCN(CC)CC#Cc1cnc(N)c(C(=O)N[C@H](C)c2nnc3ccc(Nc4cccc(Cl)c4)nn23)n1 [Compound 47]
≤ 250 | C[C@@H](NC(=O)c1nc(-c2ccc(CN3CC[C@@H](O)C3)cc2)cnc1N)c1nnc2ccc(Nc3cccc(Cl)c3)nn12 [Compound 66]
≤ 250 | CC(=O)Nc1ccc(-c2cnc(N)c(C(=O)N[C@H](C)c3nnc4ccc(Nc5cccc(Cl)c5)nn34)n2)cc1 [Compound 22]
> 2500 | O=C(Cc1nnc2ccc(Nc3cccc(Cl)c3)nn12)Nc1cnccn1 [Compound 5]
≤ 250 | C[C@@H](NC(=O)c1nc(-c2ccc(CN)cc2)cnc1N)c1nnc2ccc(Nc3cccc(Cl)c3)nn12 [Compound 65]
≤ 250 | Cc1n[nH]c(C)c1-c1cnc(N)c(C(=O)N[C@H](C)c2nnc3ccc(Nc4cccc(Cl)c4)nn23)n1 [Compound 54]
≤ 250 | C#Cc1cnc(N)c(C(=O)N[C@H](C)c2nnc3ccc(Nc4cccc(Cl)c4)nn23)n1 [Compound 36]
≤ 250 | C[C@@H](NC(=O)c1nc(C#CCCO)cnc1N)c1nnc2ccc(Nc3cccc(Cl)c3)nn12 [Compound 44]
≤ 250 | C[C@@H](NC(=O)c1nc(-c2ccc(CN(C)C)cc2)cnc1N)c1nnc2ccc(Nc3cccc(Cl)c3)nn12 [Compound 76]
≤ 250 | C[C@@H](NC(=O)c1nc(-c2ccc(CN3CCCC3)cc2)cnc1N)c1nnc2ccc(Nc3cccc(Cl)c3)nn12 [Compound 55]
250 to 2500 | C[C@@H](NC(=O)c1cccnc1N)c1nnc2ccc(Nc3cccc(Cl)c3)nn12 [Compound 13]
250 to 2500 | C[C@@H](NC(=O)c1nc(-c2cccs2)cnc1N)c1nnc2ccc(-c3ccccc3)nn12 [Compound 81]
> 2500 | C[C@@H](NC(=O)c1cccnc1)c1nnc2ccc(Nc3cccc(Cl)c3)nn12 [Compound 10]
